From ChEMBL document CHEMBL1201862, “PubChem BioAssay data set” (2004)
Activity calls are given as the source filed them.

How the values were obtained:
[1] = Luminescence Cell-Based Dose Retest to Confirm Inhibitors of Cancer Stem Cells. [Related pubchem assays (depositor defined):AID2717, AID2721]; assay type: functional; conditions: Homo sapiens
[2] = cytotoxicity in HPDE-C7 cells, cell-based, fluorescence, HTS (AID 430); assay type: functional; conditions: Homo sapiens
[3] = cytotoxicity in KRAS-transformed pancreatic duct cells, primary screen, cell-based, fluorescence, HTS (AID 431); assay type: functional; conditions: Homo sapiens;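 further: cell line used: HPDE-C7K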
[4] = biological target: T1, Leucine aminopeptidase (Plasmodium falciparum 3D7, UniProt Q8IL11); experiment: P. falciparum M17LAP inhibitors, primary screen, biochemical, fluorogenic H-Leu-NHMec substrate, 1536-well (AID 1619); assay type: functional
T1 sequence (Q8IL11 whole entry): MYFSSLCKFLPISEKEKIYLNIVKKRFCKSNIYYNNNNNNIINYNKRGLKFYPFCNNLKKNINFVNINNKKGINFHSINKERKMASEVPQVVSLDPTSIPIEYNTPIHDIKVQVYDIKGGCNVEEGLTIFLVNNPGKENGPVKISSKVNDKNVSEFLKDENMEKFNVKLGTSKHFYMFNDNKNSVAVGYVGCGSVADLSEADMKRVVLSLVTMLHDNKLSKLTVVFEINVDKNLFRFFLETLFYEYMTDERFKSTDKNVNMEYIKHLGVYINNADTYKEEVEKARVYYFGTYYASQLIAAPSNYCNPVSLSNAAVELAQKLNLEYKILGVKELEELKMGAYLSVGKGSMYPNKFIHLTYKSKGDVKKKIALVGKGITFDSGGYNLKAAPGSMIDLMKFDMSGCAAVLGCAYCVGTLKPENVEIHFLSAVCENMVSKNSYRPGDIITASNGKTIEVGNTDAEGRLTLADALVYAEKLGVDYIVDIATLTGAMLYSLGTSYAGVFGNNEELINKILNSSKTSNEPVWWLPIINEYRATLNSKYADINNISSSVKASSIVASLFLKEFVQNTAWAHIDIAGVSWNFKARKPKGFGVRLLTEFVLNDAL

[5] = biological target: T2, Aspartyl aminopeptidase (Plasmodium falciparum 3D7, UniProt Q8I2J3); experiment: Counterscreen for inhibitors of M1 and M17 aminopeptidases: QFRET-based biochemical high throughput dose response assay for inhibitors of the Plasmodium falciparum M18 Aspartyl Aminopeptidase (PFM18AAP). [Related PubChem assays: 1619 (Screening assay (M17LAP inhibitors).), 1445 (Screening assay (M1AAP inhibitors).)]
T2 sequence (Q8I2J3 whole entry): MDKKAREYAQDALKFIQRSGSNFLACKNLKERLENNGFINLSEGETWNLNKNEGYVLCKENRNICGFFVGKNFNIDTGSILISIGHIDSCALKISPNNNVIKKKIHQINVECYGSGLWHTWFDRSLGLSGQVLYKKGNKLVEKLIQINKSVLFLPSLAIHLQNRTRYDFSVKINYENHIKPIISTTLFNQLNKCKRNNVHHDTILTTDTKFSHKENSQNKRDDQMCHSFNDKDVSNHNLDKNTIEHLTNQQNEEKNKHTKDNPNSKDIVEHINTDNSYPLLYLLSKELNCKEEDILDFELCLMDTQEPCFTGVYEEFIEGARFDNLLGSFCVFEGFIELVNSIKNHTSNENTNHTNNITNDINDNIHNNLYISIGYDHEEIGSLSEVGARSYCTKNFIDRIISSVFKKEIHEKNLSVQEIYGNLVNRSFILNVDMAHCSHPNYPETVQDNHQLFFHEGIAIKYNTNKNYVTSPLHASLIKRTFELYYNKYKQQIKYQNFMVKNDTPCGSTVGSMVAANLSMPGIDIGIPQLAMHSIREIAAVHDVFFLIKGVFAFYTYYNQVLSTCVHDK

[6] = biological target: Procathepsin L (Homo sapiens, UniProt P07711); experiment: cathepsin L inhibitors, dose response, counter-screen for M1/M17 aminopeptidase inhibitor project, biochemical, QFRET, 1536-well (AID 2214)
Procathepsin L, sequence (P07711 whole entry): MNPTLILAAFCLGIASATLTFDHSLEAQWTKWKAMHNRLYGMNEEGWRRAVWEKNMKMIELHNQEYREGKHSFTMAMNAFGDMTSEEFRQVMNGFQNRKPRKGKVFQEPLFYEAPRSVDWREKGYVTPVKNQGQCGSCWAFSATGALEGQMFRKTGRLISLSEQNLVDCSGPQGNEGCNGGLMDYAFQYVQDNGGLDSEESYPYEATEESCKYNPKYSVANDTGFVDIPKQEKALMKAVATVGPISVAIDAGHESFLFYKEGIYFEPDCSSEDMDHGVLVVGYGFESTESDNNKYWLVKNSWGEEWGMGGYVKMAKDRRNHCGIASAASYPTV

[7] = biological target: Alkaline phosphatase, placental type (Homo sapiens, UniProt P05187); experiment: PLAP enzyme inhibitors, confirmation, biochemical, luminescence (AID 1512); assay type: functional
Alkaline phosphatase, placental type, sequence (P05187 whole entry): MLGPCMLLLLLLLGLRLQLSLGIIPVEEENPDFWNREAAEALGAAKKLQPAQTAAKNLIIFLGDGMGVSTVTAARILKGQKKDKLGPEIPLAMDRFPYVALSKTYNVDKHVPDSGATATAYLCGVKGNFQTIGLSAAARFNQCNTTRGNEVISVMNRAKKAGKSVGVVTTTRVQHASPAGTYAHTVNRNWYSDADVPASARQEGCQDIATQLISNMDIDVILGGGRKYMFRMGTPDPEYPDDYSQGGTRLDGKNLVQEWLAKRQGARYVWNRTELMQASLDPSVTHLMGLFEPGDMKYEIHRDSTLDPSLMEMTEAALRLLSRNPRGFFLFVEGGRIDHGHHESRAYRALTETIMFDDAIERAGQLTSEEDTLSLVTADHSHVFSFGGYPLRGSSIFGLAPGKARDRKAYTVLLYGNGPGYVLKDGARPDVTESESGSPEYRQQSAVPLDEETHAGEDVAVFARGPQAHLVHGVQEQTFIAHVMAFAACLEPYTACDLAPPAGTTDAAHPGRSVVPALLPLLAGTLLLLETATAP

[8] = biological target: T3, Alkaline phosphatase, tissue-nonspecific isozyme (Homo sapiens, UniProt P05186); experiment: human TNAP enzyme inhibitors, SAR follow-up, biochemical, luminescent, dose response (AID 1056)
T3 sequence (P05186 whole entry): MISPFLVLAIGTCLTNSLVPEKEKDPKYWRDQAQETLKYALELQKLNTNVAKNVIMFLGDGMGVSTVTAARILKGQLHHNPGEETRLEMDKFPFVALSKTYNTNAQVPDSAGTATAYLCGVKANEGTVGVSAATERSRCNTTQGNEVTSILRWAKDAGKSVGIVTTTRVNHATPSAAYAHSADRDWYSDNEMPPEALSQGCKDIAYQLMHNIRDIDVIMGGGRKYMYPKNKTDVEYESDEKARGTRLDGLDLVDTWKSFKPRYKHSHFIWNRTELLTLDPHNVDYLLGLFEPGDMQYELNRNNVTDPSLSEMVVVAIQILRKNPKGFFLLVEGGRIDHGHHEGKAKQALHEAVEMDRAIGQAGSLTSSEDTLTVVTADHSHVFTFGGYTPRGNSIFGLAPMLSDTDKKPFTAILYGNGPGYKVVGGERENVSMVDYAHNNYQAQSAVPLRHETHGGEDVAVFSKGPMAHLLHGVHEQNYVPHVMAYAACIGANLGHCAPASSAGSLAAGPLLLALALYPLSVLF

[9] = biological target: Glyceraldehyde-3-phosphate dehydrogenase (Homo sapiens, UniProt P04406)
Glyceraldehyde-3-phosphate dehydrogenase, sequence (P04406 whole entry): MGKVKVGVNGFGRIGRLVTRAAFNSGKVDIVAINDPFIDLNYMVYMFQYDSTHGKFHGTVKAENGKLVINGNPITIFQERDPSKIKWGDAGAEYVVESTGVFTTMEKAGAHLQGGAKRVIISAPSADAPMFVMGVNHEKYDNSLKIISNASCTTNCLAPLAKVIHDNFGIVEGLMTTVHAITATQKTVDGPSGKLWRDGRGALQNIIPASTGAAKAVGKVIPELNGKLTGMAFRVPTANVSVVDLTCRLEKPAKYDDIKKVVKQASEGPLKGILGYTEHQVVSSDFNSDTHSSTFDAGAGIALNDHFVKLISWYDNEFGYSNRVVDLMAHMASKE

[10] = system: Streptococcus; experiment: Group A Streptococcus viability loss, dose response, counter-screen for streptokinase expression inhibitor project, luminescence, BacTiterGlo (AID 1915); assay type: functional, organism-based;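 further: potency for reduction of bacterial viability or growth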
[11] = system: Streptococcus sp. 'group A'; experiment: growth inhibition of control SK(-) GAS strain, dose response, counter-screen for streptokinase expression inhibitor project, luminescence, kanamycin, BacTiterGlo, confirmation (AID 1900); assay type: functional, organism-based
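Wherever AC50 is given: cells exposed to compound for roughly 70 hours or longer before luminescence read.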

Compound | IC50 [4] | IC50 [5] | IC50 [6] | IC50 [8] | IC50 [9] | also measured
COc1cc(CN2CCN(c3cccc(Cl)c3)CC2)cc(OC)c1OC |  |  |  |  |  | AC50 [1]: 1.45 µM (active); EC50 [2]: 6.14 µM (active); EC50 [3]: 5.95 µM (active)
COC(=O)c1c(NC(=O)C2CCCCC2C(=O)O)sc2c1CCCCC2 (stereo not drawn) | 1.49 µM (active) | > 73.5 µM (not active) | > 59.6 µM (not active) |  |  | 
COc1ccccc1-c1nnc(SCc2ccc(C(=O)O)cc2)[nH]1 |  |  |  | 16.3 µM (active) | > 100 µM (not active) | IC50 [7]: > 100 µM (inactive)
CSc1n[nH]c(NC(C)=O)n1 |  |  |  | > 10 µM (inactive) | > 10 µM (inconclusive) | 
O=S(=O)(Nc1ccncn1)c1cc(Cl)ccc1F |  |  |  | > 100 µM (inactive) | > 100 µM (not active) | 
O=C(O)C1CC=CCC1C(=O)Nc1ccc(Oc2ccc(Cl)cc2)cc1 (stereo not drawn) | 1.02 µM (active) | > 73.5 µM (not active) | > 59.6 µM (not active) |  |  | 
O=C(O)CCCCCNC(=O)Nc1ccc2c(c1)OCCO2 | 5.51 µM (active) | > 73.5 µM (not active) | > 59.6 µM (not active) |  |  | 
N#Cc1c(NC(=O)CSc2n[nH]c(Cc3ccccc3)n2)oc(-c2ccccc2)c1-c1ccccc1 |  |  |  |  |  | EC50 [2]: 4.13 µM (active); EC50 [10]: 36.5 µM (active); EC50 [3]: 5.24 µM (active); EC50 [11]: 4.97 µM (active)
